Data as given in PubChem BioAssay AID248 (DTP/NCI, 2004).
Values joined by “and” are separate entries in the source; they are usually repeats but may differ in a detail not shown here. Equal entries are not always repeated. Inconclusive results and toxic doses are left out. No stated cut-off is given here; in the data, active means T/C of 150% or more; inactive means T/C below 125%.

Tested on: L1210 leukemia ip in BDF1 mice, survival T/C
Assay: NCI In Vivo Anticancer Drug Screen. Data for tumor model L1210 Leukemia (intraperitoneal) in B6D2F1 (BDF1) mice
Conditions: endpoint: mean survival time, higher = longer survival
How it was run: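 Mice bearing the transplanted tumor received compound or vehicle. Survival of the treated group was divided by that of the vehicle-treated control group to give the ratio.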

[1] = dose: 100.0 mg/kg/injection, schedule: Q04DX002 (ip), vehicle: saline with Tween-80
[2] = dose: 200.0 mg/kg/injection, schedule: Q04DX002 (ip), vehicle: saline with Tween-80
[3] = dose: 400.0 mg/kg/injection, schedule: Q04DX002 (ip), vehicle: saline with Tween-80
[4] = dose: 100.0 mg/kg/injection, schedule: Q01DX009 (ip), vehicle: saline with Tween-80
[5] = dose: 200.0 mg/kg/injection, schedule: Q01DX009 (ip), vehicle: saline with Tween-80
[6] = dose: 100.0 mg/kg/injection, schedule: Q01DX009 (ip), vehicle: Klucel (hydroxypropylcellulose) (HPC)
[7] = dose: 200.0 mg/kg/injection, schedule: Q01DX009 (ip), vehicle: Klucel (hydroxypropylcellulose) (HPC)
[8] = dose: 100.0 mg/kg/injection, schedule: Q04DX003 (ip), vehicle: saline with Tween-80
[9] = dose: 200.0 mg/kg/injection, schedule: Q04DX003 (ip), vehicle: saline with Tween-80
[10] = dose: 400.0 mg/kg/injection, schedule: Q04DX003 (ip), vehicle: saline with Tween-80
[11] = dose: 50.0 mg/kg/injection, schedule: Q01DX009 (ip), vehicle: saline with Tween-80
[12] = dose: 100.0 mg/kg/injection, schedule: Q04DX003 (ip), vehicle: saline
[13] = dose: 200.0 mg/kg/injection, schedule: Q04DX003 (ip), vehicle: saline
[14] = dose: 400.0 mg/kg/injection, schedule: Q04DX003 (ip), vehicle: saline

Measured: T/C

N/C(=N/N=C\c1ccccc1Cl)N/N=C/c1ccccc1Cl
inactive: dose: 15.0 mg/kg/injection, schedule: Q01DX Z (ip), vehicle: carboxymethylcellulose (CMC) 94 % of control | dose: 30.0 mg/kg/injection, schedule: Q01DX Z (ip), vehicle: carboxymethylcellulose (CMC) 100 % of control | dose: 60.0 mg/kg/injection, schedule: Q01DX Z (ip), vehicle: carboxymethylcellulose (CMC) 95 % of control | dose: 120.0 mg/kg/injection, schedule: Q01DX Z (ip), vehicle: carboxymethylcellulose (CMC) 94 % of control | dose: 120.0 mg/kg/injection, schedule: Q01DX Z (oral), vehicle: carboxymethylcellulose (CMC) 100 % of control | dose: 240.0 mg/kg/injection, schedule: Q01DX Z (oral), vehicle: carboxymethylcellulose (CMC) 100 % of control | dose: 960.0 mg/kg/injection, schedule: Q01DX Z (oral), vehicle: carboxymethylcellulose (CMC) 101 % of control

CC1=C(C#N)C(C)(C)c2ccccc21
inactive: [1] 110 % of control | [2] 100 % of control | [3] 100 % of control

CCC1(c2ccccc2)C(=O)NC(=O)N(Cc2ccccc2)C1=O (stereo not given)
inactive: [4] 109 % of control | [1] 89 % of control | [5] 98 % of control | [2] 95 % of control | dose: 400.0 mg/kg/injection, schedule: Q01DX009 (ip), vehicle: saline with Tween-80 98 % of control | [3] 103 % of control

CC(CCNc1ccc(NCCC(C)CC(C)(C)C)cc1)CC(C)(C)C (stereo not given)
inactive: [6] 98 % of control | dose: 100.0 mg/kg/injection, schedule: Q04DX003 (ip), vehicle: Klucel (hydroxypropylcellulose) (HPC) 110 % of control | [7] 101 % of control | dose: 200.0 mg/kg/injection, schedule: Q04DX003 (ip), vehicle: Klucel (hydroxypropylcellulose) (HPC) 102 % of control | dose: 400.0 mg/kg/injection, schedule: Q04DX003 (ip), vehicle: Klucel (hydroxypropylcellulose) (HPC) 96 % of control

COC1=CC2C3=C(C(NC=O)CCc4cc(O)c(OC)c(OC)c43)C2C1=O (stereo not given)
inactive: [8] 101 % of control | [9] 93 % of control | [10] 108 % of control

[O-][n+]1ccc(Cl)c2ccsc21
inactive: [11] 102 % of control | [4] 96 % of control | [8] 103 % of control | [5] 101 % of control | [9] 97 % of control | [10] 98 % of control

CN(C)C(=S)S/C=C\C(=O)O
inactive: dose: 25.0 mg/kg/injection, schedule: Q04DX002 (ip), vehicle: Klucel (hydroxypropylcellulose) (HPC) 90 % of control | dose: 50.0 mg/kg/injection, schedule: Q04DX002 (ip), vehicle: Klucel (hydroxypropylcellulose) (HPC) 90 % of control | [6] 112 % of control | dose: 100.0 mg/kg/injection, schedule: Q04DX002 (ip), vehicle: Klucel (hydroxypropylcellulose) (HPC) 94 % of control | [7] 89 % of control | dose: 200.0 mg/kg/injection, schedule: Q04DX002 (ip), vehicle: Klucel (hydroxypropylcellulose) (HPC) 93 % of control and 97 % of control | dose: 400.0 mg/kg/injection, schedule: Q01DX009 (ip), vehicle: Klucel (hydroxypropylcellulose) (HPC) 99 % of control | dose: 400.0 mg/kg/injection, schedule: Q04DX002 (ip), vehicle: Klucel (hydroxypropylcellulose) (HPC) 109 % of control

CCCC1(c2ccccc2)CC(=O)NC1=O (stereo not given)
inactive: dose: 100.0 mg/kg/injection, schedule: Q01DX001 (ip), vehicle: saline 100 % of control | dose: 100.0 mg/kg/injection, schedule: Q01DX009 (ip), vehicle: saline 106 % of control and 107 % of control | dose: 100.0 mg/kg/injection, schedule: Q04DX002 (ip), vehicle: saline 100 % of control and 108 % of control | [12] 103 % of control | dose: 200.0 mg/kg/injection, schedule: Q01DX001 (ip), vehicle: saline 97 % of control | dose: 200.0 mg/kg/injection, schedule: Q01DX009 (ip), vehicle: saline 117 % of control and 89 % of control | dose: 200.0 mg/kg/injection, schedule: Q04DX002 (ip), vehicle: saline 105 % of control and 112 % of control | [13] 97 % of control | dose: 400.0 mg/kg/injection, schedule: Q01DX001 (ip), vehicle: saline 95 % of control | dose: 400.0 mg/kg/injection, schedule: Q01DX009 (ip), vehicle: saline 98 % of control and 86 % of control | dose: 400.0 mg/kg/injection, schedule: Q04DX002 (ip), vehicle: saline 105 % of control and 108 % of control | [14] 97 % of control

CCOC(=O)CC(COC)C(C(=O)OCC)C(=O)OCC (stereo not given)
inactive: dose: 100.0 mg/kg/injection, schedule: Q01DX009 (ip), vehicle: other 100 % of control | dose: 100.0 mg/kg/injection, schedule: Q04DX003 (ip), vehicle: other 88 % of control | dose: 200.0 mg/kg/injection, schedule: Q01DX009 (ip), vehicle: other 100 % of control | dose: 200.0 mg/kg/injection, schedule: Q04DX003 (ip), vehicle: other 94 % of control | dose: 400.0 mg/kg/injection, schedule: Q01DX009 (ip), vehicle: other 98 % of control | dose: 400.0 mg/kg/injection, schedule: Q04DX003 (ip), vehicle: other 105 % of control

Cc1ccc(Nc2c3ccccc3nc3ccccc23)cc1
inactive: dose: 18.0 mg/kg/injection, schedule: Q01DX009 (ip), vehicle: saline with Tween-80 100 % of control | dose: 37.5 mg/kg/injection, schedule: Q01DX009 (ip), vehicle: saline with Tween-80 110 % of control | dose: 40.0 mg/kg/injection, schedule: Q04DX003 (ip), vehicle: saline with Tween-80 96 % of control | dose: 65.0 mg/kg/injection, schedule: Q04DX003 (ip), vehicle: saline with Tween-80 106 % of control | dose: 75.0 mg/kg/injection, schedule: Q01DX001 (ip), vehicle: saline 100 % of control (2×) and 105 % of control | dose: 75.0 mg/kg/injection, schedule: Q01DX009 (ip), vehicle: saline with Tween-80 113 % of control | dose: 75.0 mg/kg/injection, schedule: Q04DX003 (ip), vehicle: saline with Tween-80 100 % of control | dose: 95.0 mg/kg/injection, schedule: Q04DX003 (ip), vehicle: saline with Tween-80 123 % of control | dose: 150.0 mg/kg/injection, schedule: Q01DX001 (ip), vehicle: saline 118 % of control | dose: 150.0 mg/kg/injection, schedule: Q04DX003 (ip), vehicle: saline with Tween-80 107 % of control and 88 % of control | dose: 225.0 mg/kg/injection, schedule: Q04DX003 (ip), vehicle: saline with Tween-80 118 % of control

BrC#CC1=CCCCC1
inactive: dose: 100.0 mg/kg/injection, schedule: Q01DX009 (ip), vehicle: acetone 88 % of control | [12] 105 % of control | dose: 200.0 mg/kg/injection, schedule: Q01DX009 (ip), vehicle: acetone 86 % of control | [13] 103 % of control | dose: 400.0 mg/kg/injection, schedule: Q01DX009 (ip), vehicle: acetone 108 % of control | [14] 107 % of control

CC(=O)NN(C)C(C)=O
inactive: dose: 12.5 mg/kg/injection, schedule: Q04DX003 (ip), vehicle: saline 110 % of control | dose: 25.0 mg/kg/injection, schedule: Q04DX003 (ip), vehicle: saline 120 % of control | dose: 50.0 mg/kg/injection, schedule: Q04DX003 (ip), vehicle: saline 112 % of control | [12] 101 % of control | dose: 130.0 mg/kg/injection, schedule: Q04DX003 (ip), vehicle: saline 105 % of control | [13] 96 % of control and 120 % of control | dose: 300.0 mg/kg/injection, schedule: Q04DX003 (ip), vehicle: saline 100 % of control | [14] 106 % of control

CCOc1ccc2nc(S(N)(=O)=O)sc2c1
inactive: dose: 100.0 mg/kg/injection, schedule: Q01DX Z (ip), vehicle: saline 100 % of control | dose: 200.0 mg/kg/injection, schedule: Q01DX Z (ip), vehicle: saline 97 % of control | dose: 400.0 mg/kg/injection, schedule: Q01DX Z (ip), vehicle: saline 111 % of control

CCC(CC)(Cc1ccccc1)C(=O)NC(=O)NOC
inactive: dose: 100.0 mg/kg/injection, schedule: Q01DX Z (ip), vehicle: methylcellulose (MC) 98 % of control | dose: 200.0 mg/kg/injection, schedule: Q01DX Z (ip), vehicle: methylcellulose (MC) 96 % of control

Cn1nc2ccccc2n1
inactive: dose: 25.0 mg/kg/injection, schedule: Q01DX009 (ip), vehicle: saline with Tween-80 97 % of control | [11] 106 % of control | [4] 100 % of control | [8] 116 % of control
